Reference: PMC6332359, “Insecticidal and Nematicidal Activities of Novel Mimosine Derivatives” (Molecules, 2015)
Where “and” joins values, the source holds several entries; their conditions need not be identical. Identical values can stand only once. Like-named read-outs stand apart in the source and are kept apart here.

Tests used:
termites [1] = experiment: Topical assay against termites (acute toxicity); type: in vivo; conditions: for LD50 against termites by topical application: worker termites, mortality after 48 h, mean ± SE of four replications; for Insecticidal activity relative to mimosine: higher than mimosine, from Table 1 LD50
Protocol: An acute toxicity bioassay was performed by topical application to worker termites. A series of seven different doses (0.25, 0.5, 1.5, 2.5, 7.5, 12.5, and 25 μg/termite) was prepared in ethanol solution for each tested sample. Aliquots (0.5 μL) of diluted samples were applied topically to the abdomens of worker termites. Controls were treated with 0.5 μL ethanol only. Termites were transferred into petri dishes (4.2-cm diameter) lined with filter paper and kept in an incubator at 23–25 °C. A few drops of distilled water were supplied daily to the bottom edge of each dish to maintain moisture during the experiment. Four replicates of 20 termites each were used per treatment. Fenitrothion and rotenone were used as positive controls. Mortality of insects was evaluated after 48 h treatment. […] LD50 values were calculated by probit analysis using Graphpad Prism 6.01 (GraphPad, La Jolla, CA, USA).

termites [2] = experiment: No-choice contact assay against termites; type: in vivo; conditions: no-choice contact method, seven days treatment
Protocol: The no-choice bioassay method as described by Tawata et al. was used to evaluate insecticidal activity. […] Filter paper treated with ethanol and acetone was used as the control. After removing the solvent from treated filter paper by air drying at ambient temperature for 24 h, 20 termites were placed onto each paper. The dishes were covered and placed in incubator at ±23 °C. A few drops of distilled water were supplied daily to the bottom edge of each petri dish to maintain moisture during the experiment. The experiment was performed using four replicates of each treatment and was repeated two times. Mortality was evaluated after seven days treatment. […] Insect mortality rate was calculated as a percentage in comparison with the control group. Rotenone and fenitrothion were used as positive controls.

[3] = target: acetylcholinesterase (AChE) from termite whole bodies; experiment: Acetylcholinesterase (AChE) inhibition, modified Ellman's method; type: biochemical, termites; conditions: crude enzyme from termite whole bodies; for IC50: pH 8.0, 25 °C, read-out: IC50 against AChE
Protocol: Whole bodies of termites (20 mg) were homogenized in 1 mL of 0.1 M phosphate buffer (pH 8.0), and the homogenate was centrifuged at 12,000 rpm for 20 min. The supernatant was used as the enzyme source. All procedural steps for preparing the crude enzyme were performed at 4 °C [26]. The AChE activity was measured using the modified Ellman’s method. Twenty-five microliters of sample was transferred into each well of a 96-well microplate containing 125 μL 0.1 M phosphate buffer (pH 8.0), and 30 μL of the enzyme solution was added to each well. The mixture was incubated for 10 min at 25 °C, after which 50 μL of 5,5′-dithiobis-(2-nitrobenzoic acid) (final concentration 0.4 mM) and 25 μL of acetylthiocholine iodide (final concentration 1 mM) were added. The control was treated by adding 25 μL water. Enzyme activity was measured for 20 min at 412 nm. The AChE inhibition assay was performed using four replicates of each treatment and was repeated two times. The inhibition rate of AChE activity was calculated as a percentage as follows: Inhibition (%) = (Ao − AE)/Ao × 100(1) where Ao is the absorbance of the control, and AE is the absorbance of the tested sample.

Caenorhabditis elegans = experiment: Nematicidal activity assay, 96-well microplate method; type: in vivo
Protocol: The nematicidal activity assay was conducted according to previously described procedures with minor modifications. The nematode Caenorhabditis elegans was cultivated on nematode growth medium (NGM) [3 g NaCl, 15 g agar, 2.5 g polypeptone, 136.1 g KH2OP4, 17.9 g KOH, 1 mL 1 M MgSO4, 1 mL 1 M CaCl2, 1 mL cholesterol (5 mg/mL), and 500 μL ampicillin (100 μg/mL)] plate covered with Escherichia coli strain OP50. The ampicillin-resistant OP50 was used as a feed source to prevent cross-contamination of the nematode culture. The NGM plates contained high densities of worms after 4 days incubation at 20 °C. For preparation of synchronous worm culture, worms were rinsed from the agar plate with S-basal buffer (5.85 g NaCl, 1 g K2HPO4, 6 g KH2PO4, and 1 mL cholesterol [5 mg/mL ethanol]/L), washed twice with S-basal buffer, and added to household bleach/10 N NaOH solution. The supernatant was shaken for 10–15 min, washed three times by centrifugation for 1 min at 3000 rpm, and then resuspended in S-basal buffer. One hundred microliters of worm/OP50 (1.2 × 10^9 bacteria/mL) solution was transferred into each well of a 96-well plate, and 20 μL sample stock solution was added to give final concentrations 25, 50, 100, 250, and 500 μM. The plate was shaken thoroughly for 2–3 min and incubated at 20 °C. Water was used as a negative control. The experiment was performed using four replicates of each treatment and was repeated two times. Dead and active nematodes were recorded after 48 h treatment. Nematode mortality rate was calculated as a percentage in comparison with the control group.

[4] = read-out: Nematicidal activity IC50, C. elegans, 48 h treatment, 20 °C
[5] = Caenorhabditis elegans, C. elegans, 48 h treatment, 20 °C, read-out: Nematicidal activity IC50

COP1(=S)N[C@@H](Cn2ccc(=O)c(O)c2)CO1 (stereo partly drawn) [Compound 1a, 3-Hydroxy-1-(((4S)-2-methoxy-2-sulfido-1,3,2-oxazaphospholidin-4-yl)methyl)pyridin-4(1H)-one]
LD50 against termites by topical application (termites [1]): 0.5 μg/insect and 0.5 ± 0.1 fg μg/insect | Mortality (%) (termites [2]; 50 μg/mL): 52%–62% and 62.5 ± 1.8 a % | Mortality (%) (termites [2]; 100 μg/mL): 71%–88% and 88.8 ± 0.9 a % | Mortality (%) (termites [2]; 250 μg/mL): 90.6 ± 1.3 a % | IC50 [3]: 95.9 µM | IC50 (Caenorhabditis elegans; [4]): 31.8 µM

CCOP1(=S)N[C@@H](Cn2ccc(=O)c(O)c2)CO1 (stereo partly drawn) [Compound 1b, 1-(((4S)-2-Ethoxy-2-sulfido-1,3,2-oxazaphospholidin-4-yl)methyl)-3-hydroxypyridin-4(1H)-one]
LD50 against termites by topical application (termites [1]): 0.7 μg/insect and 0.7 ± 0.1 ef μg/insect | Mortality (%) (termites [2]; 50 μg/mL): 52%–62% and 52.5 ± 3.5 ab % | Mortality (%) (termites [2]; 100 μg/mL): 71%–88% and 71.9 ± 1.3 b % | Mortality (%) (termites [2]; 250 μg/mL): 84.4 ± 2.2 ab % | IC50 [3]: 104 µM | IC50 (Caenorhabditis elegans; [4]): 50.2 µM

CCCOP1(=S)N[C@@H](Cn2ccc(=O)c(O)c2)CO1 (stereo partly drawn) [Compound 1c, 3-Hydroxy-1-(((4S)-2-propoxy-2-sulfido-1,3,2-oxazaphospholidin-4-yl)methyl)pyridin-4(1H)-one]
LD50 against termites by topical application (termites [1]): 0.8 ± 0.1 ef μg/insect | Mortality (%) (termites [2]; 50 μg/mL): 45.6 ± 0.4 bc % | Mortality (%) (termites [2]; 100 μg/mL): 59.4 ± 1.3 cd % | Mortality (%) (termites [2]; 250 μg/mL): 77.5 ± 0.9 b % | IC50 (Caenorhabditis elegans; Caenorhabditis elegans, 48 h, read-out: Nematicidal activity IC50, C. elegans, 48 h treatment, 20 °C): 116 µM

COP1(=S)N[C@@H](Cn2ccc(=O)c(O)c2)CO1 (stereo partly drawn) [Compound 2a, 3-Hydroxy-1-(((4S)-2-methoxy-2-sulfido-1,3,2-oxazaphospholidin-4-yl)methyl)pyridin-4(1H)-one]
LD50 against termites by topical application (termites [1]): 1.2 ± 0.2 de μg/insect | Mortality (%) (termites [2]; 50 μg/mL): 48.8 ± 2.5 bc % | Mortality (%) (termites [2]; 100 μg/mL): 70.6 ± 0.6 b % | Mortality (%) (termites [2]; 250 μg/mL): 82.5 ± 1.3 ab % | IC50 (Caenorhabditis elegans; [4]): 252 µM

CCOP1(=S)N[C@@H](Cn2ccc(=O)c(O)c2)CO1 (stereo partly drawn) [Compound 2b, 1-(((4S)-2-ethoxy-2-sulfido-1,3,2-oxazaphospholidin-4-yl)methyl)-3-hydroxypyridin-4(1H)-one]
LD50 against termites by topical application (termites [1]): 2.1 ± 0.4 c μg/insect | Mortality (%) (termites [2]; 50 μg/mL): 42.5 ± 2.5 bcd % | Mortality (%) (termites [2]; 100 μg/mL): 52.5 ± 2.5 de % | Mortality (%) (termites [2]; 250 μg/mL): 63.8 ± 0.0 c % | IC50 (Caenorhabditis elegans; [4]): 187 µM

CCCOP1(=S)N[C@@H](Cn2ccc(=O)c(O)c2)CO1 (stereo partly drawn) [Compound 2c, 3-Hydroxy-1-(((4S)-2-propoxy-2-sulfido-1,3,2-oxazaphospholidin-4-yl)methyl)pyridin-4(1H)-one]
LD50 against termites by topical application (termites [1]): 3.1 ± 0.5 b μg/insect | Mortality (%) (termites [2]; 50 μg/mL): 29.4 ± 1.9 e % | Mortality (%) (termites [2]; 100 μg/mL): 44.4 ± 1.9 e % | Mortality (%) (termites [2]; 250 μg/mL): 52.5 ± 3.8 d % | IC50 (Caenorhabditis elegans; [4]): 218 µM

[2H]C([2H])(O)[C@@H](N)Cn1ccc(=O)c(O)c1 [D-mimosinol, deuterated mimosinol]
Insecticidal activity relative to mimosine (termites [1]): > 30 times | LD50 against termites by topical application (termites [1]): 1.8 ± 0.3 d μg/insect | Mortality (%) (termites [2]; 50 μg/mL): 33.1 ± 1.9 de % | Mortality (%) (termites [2]; 100 μg/mL): 53.8 ± 3.8 de % | Mortality (%) (termites [2]; 250 μg/mL): 60.6 ± 0.6 cd % | IC50 (Caenorhabditis elegans; [5]): 390 µM

COP(=S)(OC)Oc1ccc([N+](=O)[O-])c(C)c1 [Fenitrothion, reference compound]
LD50 against termites by topical application (termites [1]): 0.025 ± 0.0 g μg/insect | Mortality (%) (termites [2]; 5 μg/mL): 26.9 ± 1.3% | Mortality (%) (termites [2]; 10 μg/mL): 69.4 ± 0.6% | Mortality (%) (termites [2]; 15 μg/mL): 83.8 ± 1.9% | IC50 [3]: 182 µM

NC(Cn1ccc(=O)c(O)c1)C(=O)O (stereo not drawn) [Mimosine, β-[N-(3-hydroxy-4-oxypyridyl)]-α-aminopropionic acid]
LD50 against termites by topical application (termites [1]): 54.1 ± 5.9 a μg/insect | Mortality (%) (termites [2]; 50 μg/mL): 2.5 ± 1.1 f % | Mortality (%) (termites [2]; 100 μg/mL): 7.5 ± 1.0 f % | Mortality (%) (termites [2]; 250 μg/mL): 9.1 ± 2.0 e % | AChE inhibitory activity (in words) [3]: not active | IC50 [3]: 1530 µM | IC50 (Caenorhabditis elegans; [5]): 16.8 µM

N[C@H](CO)Cn1ccc(=O)c(O)c1 [Mimosinol, mimosinol]
Insecticidal activity relative to mimosine (termites [1]): > 30 times | LD50 against termites by topical application (termites [1]): 1.2 ± 0.2 de μg/insect | Mortality (%) (termites [2]; 50 μg/mL): 38.1 ± 1.3 cde % | Mortality (%) (termites [2]; 100 μg/mL): 52.5 ± 2.7 de % | Mortality (%) (termites [2]; 250 μg/mL): 68.5 ± 0.6 c % | IC50 (Caenorhabditis elegans; [5]): 376 µM

C=C(C)[C@H]1Cc2c(ccc3c2O[C@@H]2COc4cc(OC)c(OC)cc4[C@@H]2C3=O)O1 [Rotenone, rotenone, reference compound]
LD50 against termites by topical application (termites [1]): 0.8 ± 0.2 ef μg/insect | Mortality (%) (termites [2]; 50 μg/mL): 48.8 ± 0.9 bc % | Mortality (%) (termites [2]; 100 μg/mL): 68.1 ± 1.3 bc % | Mortality (%) (termites [2]; 250 μg/mL): 80.0 ± 0.9 b %

O=c1cc(CO)occ1O [kojic acid]
AChE inhibitory activity (in words) [3]: not active | IC50 [3]: 5480 µM | IC50 (Caenorhabditis elegans; [5]): 328 µM
